BindingDB's records for doi:10.1021/jm800527x (Roche Palo Alto, 2008)

Columns and labels:
[1] = target: T1, Gag-Pol polyprotein [588-1027,K691N,Y769C]/[588-1147,K691N,Y769C] (Human immunodeficiency virus 1, UniProt P04585, K691N/Y769C); experiment: HIV-1 Reverse Transcriptase Assay; settings: pH 8; 30 °C
T1 construct: 588-1027; 588-1147
Source text: (§1) IC50s were obtained from the inhibition of the RNA-dependent DNA polymerase activity of the HIV-1 reverse transcriptase enzyme using a primer extension assay. EC50s were obtained from inhibition of virus-induced cell-death in MT-4 cells.

[2] = target: T2, Gag-Pol polyprotein [588-1027] (Human immunodeficiency virus type 1 group M subtype B (isolate HXB2), UniProt P04585); experiment: HIV-1 Reverse Transcriptase Assay; settings: pH 8; 30 °C
T2 construct: 588-1027
Source text: as §1

Compound	EC50 [1] [nM]	EC50 [2] [nM]
Cc1cc(C#N)cc(Oc2ccc(Cc3n[nH]c4nnccc34)cc2Br)c1 [3-(2-bromo-4-{1H-pyrazolo[3,4-c]pyridazin-3-ylmethyl}phenoxy)-5-methylbenzonitrile]	> 100	
N#Cc1cc(Cl)cc(Oc2c(Br)ccc(Cc3n[nH]c4nccnc34)c2F)c1 [3-(6-bromo-2-fluoro-3-{1H-pyrazolo[3,4-b]pyrazin-3-ylmethyl}phenoxy)-5-chlorobenzonitrile]	> 100	> 25
